Key:
Format in all cases: in vivo
[1] = pharmacological and clinical studies / animal models (summary statements)
Excerpt: This may be shown in functional in-vivo pharmacological models and studies of 5-HT-reuptake effect and or in behavior models, for example depression models.

[2] = fixed dose studies (MADRS rating scale and Clinical Global Impression); details: escitalopram in a dose of 10 mg compared with citalopram 40 mg
[3] = system: primary care patients with major depression disorder; experiment: 8-week, double-blind, randomised, placebo-controlled, flexible-dose clinical study
Excerpt: (§1) This has i.a. been found in the Chronic Mild Stress model (Wiliner P., Psychopharmachology 1997, 134, 319-329).
A total of 471 patients were randomised into the study. The all-patient-treated set comprised 469 patients and the full-analysis set comprised 468 patients.
There was an approximately 3 to 1 ratio of women to men in each treatment group, and almost all patients were Caucasian. The mean age was 43 years (SD 11). At baseline, the mean MADRS total score was approximately 29 for the treatment group, which signifies moderate to severely ill patients.

[4] = system: Chronic Mild Stress model; experiment: Chronic Mild Stress model; details: animal models, compared with citalopram-racemate
Excerpt: as §1

In the case of `CN(C)CCC[C@@]1(c2ccc(F)cc2)OCc2cc(C#N)ccc21` [escitalopram, (S)-1-[3-(dimethylamino)propyl]-1-(4-fluorophenyl)-1,3-dihydro-5-isobenzofurancarbonitrile], the onset of action ([1]; animal models and clinical studies, compared with the racemate and other SSRIs) is reported as “faster onset of action”, the “potency relative to the racemate” value ([1]; pharmacological and clinical studies) is reported as “substantially more than two times as potent as the racemate” and the extent of response ([1]; various animal models) is reported as “more full response”. For the same compound, the “effect as determined by MADRS rating scale and Clinical Global Impression (severity and improvement)” value [2] was “at least same effect as citalopram in a dose of 40 mg”, the onset of effect ([3]; 10 mg escitalopram, 20 mg citalopram, versus placebo) was “showed effects after one week” and the “adjusted mean change in MADRS total score versus placebo (significance)” value ([3]; Week 1 (p=0.023) to Week 4 (p=0.002), observed cases) was “significantly superior therapeutic effect”. The “CGI improvement and severity subscale versus placebo” value ([3]; Week 4, last observation carried forward) was “statistically significantly superior to placebo”, the “adjusted mean change in MADRS total score versus placebo” value ([3]; Week 4, last observation carried forward, 10 mg escitalopram, 20 mg citalopram, escitalopram p=0.002, citalopram statistically insignificant) was 2.7 points and the “CGI improvement and severity subscale versus placebo” value ([3]; from Week 1 onwards (p<0.05), observed cases, 4-week period) was “significantly superior to placebo”. For the same compound, the speed of response [4] was “faster response than citalopram-racemate”.

— patent US20040192765A1 (H. Lundbeck A/S, priority 2001, published 2004)
